From ChEMBL document CHEMBL2375305, “Synthesis of novel triterpene and N-allylated/N-alkylated niacin hybrids as α-glucosidase inhibitors” (Eur J Med Chem, 2013) come the findings set out here.

In general, inhibition refers to the drop in the measured response relative to a control, in per cent. What is called IC50 is the concentration that gives 50% inhibition.

Assay [1] is filed under the species Homo sapiens. In words: (§1) Inhibition of alpha-glucosidase (unknown origin) using PNPG as substrate incubated for 10 mins prior to substrate addition measured every 30 secs for 5 mins relative to control.
The species named for assay [2] is Homo sapiens. Nature of the assay: Inhibition of alpha-glucosidase (unknown origin) using PNPG as substrate at 100 uM incubated for 10 mins prior to substrate addition measured every 30 secs for 5 mins relative to control.
Assay [3] deals with Rattus norvegicus. Nature of the assay: Antihyperglycemic activity in sucrose-loaded STZ-induced diabetic rat model assessed as reduction in blood glucose level at 100 mg/kg, po administered 30 mins followed by sucrose administration measured after 5 hrs relative to vehicle-treated control. It counts as functional. On the set-up: scale not given: the % may be the effect or the level left.

The species entered for assay [4] is Homo sapiens. In words: Ratio of compound activity to acarbose activity for inhibition of alpha-glucosidase (unknown origin).
The species entered for assay [5] is Homo sapiens. Nature of the assay: Binding affinity to alpha-glucosidase (unknown origin) assessed as loss in secondary structure at 50 to 250 uM measured every 1 sec for 1 to 2 mins by CD spectroscopic analysis.
Assay [6] is described as follows: as §1. More on the design: species or system Homo sapiens.
Assay [7] is filed under the species Homo sapiens. Nature of the assay: Non-competitive inhibition of alpha-glucosidase (unknown origin) using PNPG as substrate at 2 to 6 uM by Lineweaver-Burk plot analysis.

The structures appear in SMILES notation. Active and inactive are the calls of the source. The calls are words filed in the database; no cut-off is given here.

For `CCCCCCCCCCCCC[n+]1cccc(C(=O)O[C@H]2CC[C@]3(C)[C@H]4CC=C5[C@@H]6[C@@H](C)[C@H](C)CC[C@]6(C)CC[C@@]5(C)[C@]4(C)CC[C@H]3C2(C)C)c1`, in assay [1], the inhibition result was “Dose-dependent effect”.

For `C=C(C)[C@@H]1CC[C@]2(C)CC[C@]3(C)[C@@H](CC[C@@H]4[C@@]5(C)CC[C@H](OC(=O)c6ccc[n+](C/C=C(\C)CCC=C(C)C)c6)C(C)(C)[C@@H]5CC[C@]43C)[C@H]12`, in assay [2], the inhibition stood at 3.8%.

With `C=C(C)[C@@H]1CCC2(C)CC[C@]3(C)[C@@H](CC[C@@H]4[C@@]5(C)CC[C@H](OC(=O)c6ccc[n+](CCCCCCCCCCCC)c6)C(C)(C)[C@@H]5CC[C@]43C)[C@H]12` (single isomer, unassigned), in assay [2], the inhibition came to 8.8%.

Consider `C=C(C)[C@@H]1CC[C@]2(C)CC[C@]3(C)[C@@H](CC[C@@H]4[C@@]5(C)CC[C@H](OC(=O)c6ccc[n+](CC=C(C)C)c6)C(C)(C)[C@@H]5CC[C@]43C)[C@H]12`, for which, in assay [2], the inhibition is -4.4%.

Regarding `CCCCCCCCCCCC[n+]1cccc(C(=O)O[C@H]2CC[C@]3(C)[C@H]4CC=C5[C@@H]6[C@@H](C)[C@H](C)CC[C@]6(C)CC[C@@]5(C)[C@]4(C)CC[C@H]3C2(C)C)c1`, the inhibition entry in assay [1] was “Dose-dependent effect”.

In the case of `CCCCCCCCCCCCCCCC[n+]1cccc(C(=O)O[C@H]2CC[C@]3(C)[C@H]4CC=C5[C@@H]6[C@@H](C)[C@H](C)CC[C@]6(C)CC[C@@]5(C)[C@]4(C)CC[C@H]3C2(C)C)c1`, the inhibition entry in assay [1] is “Dose-dependent effect”.

Regarding `C=C(C)[C@@H]1CC[C@]2(C)CC[C@]3(C)[C@@H](CC[C@@H]4[C@@]5(C)CC[C@H](OC(=O)c6ccc[n+](CCCCCCCCCCCCCCCC)c6)C(C)(C)[C@@H]5CC[C@]43C)[C@H]12`, the inhibition in assay [2] amounted to 4.5%.

Regarding `CC(C)=CC[n+]1cccc(C(=O)O[C@H]2CC[C@]3(C)[C@H]4CC=C5[C@@H]6[C@@H](C)[C@H](C)CC[C@]6(C)CC[C@@]5(C)[C@]4(C)CC[C@H]3C2(C)C)c1.[Br-]`, in assay [3], the Activity turned out to be 19.9%. The Ratio in assay [4] was 10. The outcome in assay [5] was Active. Moreover, in assay [6], the IC50 is 5 µM. Also, the inhibition entry in assay [1] is “Dose-dependent effect”. The inhibition entry in assay [7] was “Active”.
